In patent US7135466B2 (Kirin Beer Kabushiki Kaisha, priority 1999, dated 2006):
Where two headings read alike, the source gives them in different places.

Biological target: T1, PDGF-Ra (Homo sapiens, UniProt P16234)
T1 construct: host or cells: G-292 human osteosarcoma cells
Assay: Inhibitory activity against PDGF-Ra phosphorylation by PDGF-AA stimulation using G292
Format: cell-based
Settings: for IC50: > means inhibition at indicated concentration not more than 50%, < and << not less than 50%, read-out: PDGF (E) IC50; for inhibition at 0.1 µM: G292, at 100 nM, read-out: PDGF (E) inhibition (%) at 100 nM
Description: Measurement of Inhibitory Activity Against PDGF-Ra Phosphorylation by PDGF-AA Stimulation Using G292
G-292 human osteosarcoma cells (Dainippon Pharmaceutical Co. Ltd.) were cultured in a DMEM medium (Dainippon Pharmaceutical Co. Ltd.) containing 10% FBS within an incubator containing 5% carbon dioxide until 80% confluent, and the cells were planted at 3×10^4 cells per well in 96-well flat-bottom plates in the same medium containing 0.1% FBS. After cultivation at 37° C. overnight, a solution of a test compound in dimethyl sulfoxide was added to each well, and a reaction was allowed to proceed at 37° C. for one hr.
After the reaction of the test compound, PDGF-AA (Upstate) was added to 50 ng/ml, and the cells were stimulated at 37° C. for 5 min. Thereafter, the cells were solubilized and shaken at room temperature for 20 min.
This solubilized cell solution was transferred to a 96-well plate coated with aniti-phosphotyrosine antibody PY-20, and a reaction was allowed to proceed at 4° C. overnight. Anti-PDGF-Ra (c-20) (Santa Cruz) was added as a primary antibody, and a reaction was allowed to proceed for one hr. GAR (Anti-rabbit Ig, horseradish peroxidase, Amersham) was then added as a secondary antibody, and a reaction was allowed to proceed for one hr. Color development was carried out using a color development kit for peroxidase (Sumitomo Bakelite Co., Ltd.), and the absorbance was measured at 450 nm.

[1] = figure within parentheses in >100( )
[2] = figure in parentheses in >100( )

T1 sequence (P16234 24-1089): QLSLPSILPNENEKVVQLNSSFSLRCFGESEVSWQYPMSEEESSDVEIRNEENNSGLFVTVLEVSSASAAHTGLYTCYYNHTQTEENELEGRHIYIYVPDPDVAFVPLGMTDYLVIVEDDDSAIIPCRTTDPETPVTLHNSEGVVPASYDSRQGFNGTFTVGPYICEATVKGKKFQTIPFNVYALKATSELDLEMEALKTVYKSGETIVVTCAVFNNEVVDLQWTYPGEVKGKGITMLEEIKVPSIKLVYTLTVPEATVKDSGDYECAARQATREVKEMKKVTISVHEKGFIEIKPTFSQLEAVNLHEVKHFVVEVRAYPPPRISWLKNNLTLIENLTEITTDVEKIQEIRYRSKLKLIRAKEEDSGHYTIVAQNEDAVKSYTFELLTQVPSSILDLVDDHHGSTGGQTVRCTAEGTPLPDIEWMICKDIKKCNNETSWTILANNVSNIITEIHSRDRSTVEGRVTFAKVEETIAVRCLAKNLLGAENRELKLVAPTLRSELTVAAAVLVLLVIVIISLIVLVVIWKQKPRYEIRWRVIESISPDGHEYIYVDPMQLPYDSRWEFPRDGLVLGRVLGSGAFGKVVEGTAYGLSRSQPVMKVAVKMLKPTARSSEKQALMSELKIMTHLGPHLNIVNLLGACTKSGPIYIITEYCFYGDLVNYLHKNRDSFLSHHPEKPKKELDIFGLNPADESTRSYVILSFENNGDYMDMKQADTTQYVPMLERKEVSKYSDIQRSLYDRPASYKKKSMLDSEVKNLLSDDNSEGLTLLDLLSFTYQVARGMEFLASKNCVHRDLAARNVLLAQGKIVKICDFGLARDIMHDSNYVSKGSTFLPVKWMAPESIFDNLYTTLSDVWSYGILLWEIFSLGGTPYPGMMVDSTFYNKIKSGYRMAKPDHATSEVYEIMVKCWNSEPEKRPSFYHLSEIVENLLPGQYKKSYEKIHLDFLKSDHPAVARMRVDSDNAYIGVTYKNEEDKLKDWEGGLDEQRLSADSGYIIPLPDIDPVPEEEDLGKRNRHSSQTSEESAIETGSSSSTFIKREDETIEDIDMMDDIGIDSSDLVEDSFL

CCCC(CCN(CC)CC)OC(=O)Nc1ccc(Oc2ccnc3cc(OC)c(OC)cc23)cc1 (stereo not drawn) [Example 441, 1-[2-(Diethylamino)ethyl]butyl N-{4-[(6,7-dimethoxy-4-quinolyl)oxy]phenyl}carbamate]
IC50: 70 nM

COc1cc2nccc(Oc3cc(C)c(NC(=S)NN4CCCCC4)cc3C)c2cc1OC [Example 522, N-{4-[(6,7-Dimethoxy-4-quinolyl)oxy]-2,5-dimethylphenyl}-N′-(1-piperidinyl)thiourea]
IC50: > 100 nM

COc1cc2nccc(Oc3ccc(NC(=O)Oc4cccc(C#N)c4)cc3)c2cc1OC [Example 457, 3-Cyanophenyl N-{4-[(6,7-dimethoxy-4-quinolyl)oxy]phenyl}carbamate]
IC50: > 100 nM
inhibition at 0.1 µM [1]: 29%

4-(Dimethylamino)butyl N-{4-[(6,7-dimethoxy-4-quinolyl)oxy]phenyl}carbamate [Example 192]
IC50 (Pharmacological Test Example 1): 56 nM

CCN(C(=S)NC(=O)C1CC1c1ccccc1)c1ccc(Oc2ccnc3cc(OC)c(OC)cc23)cc1 (stereo not drawn) [Example 1143, N-{4-[(6,7-Dimethoxy-4-quinolyl)oxy]phenyl}-N-ethyl-N′-[(2-phenylcyclopropyl)carbonyl]thiourea]
IC50: > 100 nM
inhibition at 0.1 µM [2]: 32%

COc1cc2nccc(Oc3ccc(NC(=O)OC(c4ccccc4)C(C)C)cc3)c2cc1OC (stereo not drawn) [Example 195, 2-Methyl-1-phenylpropyl N-{4-[(6,7-dimethoxy-4-quinolyl)oxy]phenyl}carbamate]
IC50 (Pharmacological Test Example 1): 66 nM

COc1cc2nccc(Oc3ccc(NC(=S)NC(=O)c4cc(Cl)cc(Cl)c4)c(Cl)c3)c2cc1OC [Example 1159, N-{2-Chloro-4-[(6,7-dimethoxy-4-quinolyl)oxy]phenyl}-N′-(3,5-dichlorobenzoyl)thiourea]
IC50: > 100 nM

COc1cc2ncnc(Oc3ccc(NC(=S)NC(=O)Cc4cccs4)cc3)c2cc1OC [Example 1172, N-{4-[(6,7-Dimethoxy-4-quinazolinyl)oxy]phenyl}-N′-[2-(2-thienyl)acetyl]thiourea]
IC50: 34 nM

COc1cc2ncnc(Oc3ccc(NC(=O)OCC4CC4)c(Cl)c3)c2cc1OC [Example 384, Cyclopropylmethyl N-{2-chloro-4-[(6,7-dimethoxy-4-quinazolinyl)oxy]phenyl}carbamate]
inhibition at 0.1 µM [2]: 37%
IC50 (Pharmacological Test Example 1): > 100 nM

COc1cc2nccc(Oc3ccc(NC(=O)OC4CCN(C)CC4)c(C)c3C)c2cc1OC [Example 468, 1-Methyl-4-piperidyl N-{4-[(6,7-dimethoxy-4-quinolyl)oxy]-2,3-dimethylphenyl}carbamate]
IC50: > 100 nM
inhibition at 0.1 µM [1]: 20%

COc1cc2nccc(Oc3ccc(NC(=S)NC(=O)Cc4ccc(CBr)cc4)cc3)c2cc1OC [Example 1169, N-{2-[4-(Bromomethyl)phenyl]acetyl}-N′-{4-[(6,7-dimethoxy-4-quinolyl)oxy]phenyl}thiourea]
IC50: 37 nM

COc1cc2nccc(Oc3cc(C)c(NC(=O)OC4CCN(C)CC4)cc3C)c2cc1OC [Example 467, 1-Methyl-4-piperidyl N-{4-[(6,7-dimethoxy-4-quinolyl)oxy]-2,5-dimethylphenyl}carbamate]
IC50: > 100 nM
inhibition at 0.1 µM [1]: 8%

COc1cc2ncnc(Oc3ccc(NC(=O)OC(C)c4ccccc4Br)c(Cl)c3)c2cc1OC (stereo not drawn) [Example 116, 1-(2-Bromophenyl)ethyl N-{2-chloro-4-[(6,7-dimethoxy-4-quinazolinyl)oxy]phenyl}carbamate]
IC50 (Pharmacological Test Example 1): 31 nM

COc1cc2nccc(Oc3ccc(NC(=O)NC4CCN(CC5CCCCC5)C4)cc3)c2cc1OC (stereo not drawn) [Example 585, N-[1-(Cyclohexylmethyl)tetrahydro-1H-3-pyrrolyl]-N′-{4-[(6,7-dimethoxy-4-quinolyl)oxy]phenyl}urea]
IC50: > 100 nM
inhibition at 0.1 µM [1]: 32%

COc1cc2ncnc(Oc3ccc(NC(=O)Oc4ccccc4C#N)cc3)c2cc1OC [Example 456, 2-Cyanophenyl N-{4-[(6,7-dimethoxy-4-quinazolinyl)oxy]phenyl}carbamate]
IC50: > 100 nM
inhibition at 0.1 µM [1]: 21%

COc1cc2nccc(Oc3ccc(OCCCOc4c(C)cccc4C)cc3)c2cc1OC [Example 799, 4-{4-[3-(2,6-Dimethylphenoxy)propoxy]phenoxy}-6,7-dimethoxyquinoline]
IC50: 14 nM

COc1cc2nccc(Oc3ccc(NC(=S)NC(=O)c4ccccc4F)cc3F)c2cc1OC [Example 1160, N-{4-[(6,7-Dimethoxy-4-quinolyl)oxy]-3-fluorophenyl}-N′-(2-fluorobenzoyl)thiourea]
IC50: < 10 nM

COc1cc2nccc(Oc3ccc(NC(=S)NCCN4CCCCC4)c(C)c3C)c2cc1OC [Example 512, N-{4-[(6,7-Dimethoxy-4-quinolyl)oxy]-2,3-dimethylphenyl}-N′-(2-piperidinylethyl)thiourea]
IC50: 29 nM

COc1cc2nccc(Oc3ccc(NC(=S)NC(=O)c4ccc(C5CCCCC5)cc4)cc3Cl)c2cc1OC [Example 1127, N-{3-Chloro-4-[(6,7-dimethoxy-4-quinolyl)oxy]phenyl}-N′-(4-cyclohexylbenzoyl)thiourea]
IC50: > 100 nM
inhibition at 0.1 µM [2]: 8%

COc1cc2ncnc(Oc3ccc(NC(=S)NC(=O)c4ccccc4C(F)(F)F)cc3)c2cc1OC [Example 1157, N-{4-[(6,7-Dimethoxy-4-quinazolinyl)oxy]phenyl}-N′-[2-(trifluoromethyl)benzoyl]thiourea]
IC50: < 10 nM

N-{4-[(6,7-Dimethoxy-4-quinolyl)oxy]-2,5-dimethylphenyl}-N′-(N-cyclohexylamino)thiourea [Example 523]
IC50: > 100 nM

COc1cc2nccc(Oc3ccc(NC(=S)NC(=O)C(C)Oc4ccccc4)cc3)c2cc1OC (stereo not drawn) [Example 745, N-{4-[(6,7-Dimethoxy-4-quinolyl)oxy]phenyl}-N′-(2-phenoxypropanoyl)thiourea]
IC50: 53 nM

COc1cc2ncnc(Oc3ccc(NC(=S)NC(=O)c4c(Cl)cccc4Cl)cc3)c2cc1OC [Example 1162, N-(2,6-Dichlorobenzoyl)-N′-{4-[(6,7-dimethoxy-4-quinazolinyl)oxy]phenyl}thiourea]
IC50: 13 nM

COc1cc2ncnc(Oc3ccc(OCC(=O)O)cc3)c2cc1OC [Example 775, 2-{4-[(6,7-Dimethoxy-4-quinazolinyl)oxy]phenoxy}acetic acid]
IC50: > 100 nM
inhibition at 0.1 µM [1]: 22%

COc1cc2nccc(Oc3ccc(NC(=O)OC(c4ccccc4)C(C)C)c(C)c3C)c2cc1OC (stereo not drawn) [Example 196, 2-Methyl-1-phenylpropyl N-{4-[(6,7-dimethoxy-4-quinolyl)oxy]-2,3-dimethylphenyl}carbamate]
IC50 (Pharmacological Test Example 1): 49 nM

COc1cc2ncnc(Oc3ccc(NC(=S)NC(=O)C(C)(C)C)cc3)c2cc1OC [Example 1188, N-{4-[(6,7-Dimethoxy-4-quinazolinyl)oxy]phenyl}-N′-(2,2-dimethylpropanoyl)thiourea]
IC50: 76 nM

COc1cc2nccc(Oc3ccc(NC(=S)NC(=O)c4ccc(C5CCCCC5)cc4)cc3)c2cc1OC [Example 1124, N-(4-Cyclohexylbenzoyl)-N′-{4-[(6,7-dimethoxy-4-quinolyl)oxy]phenyl}thiourea]
IC50: > 100 nM
inhibition at 0.1 µM [2]: 22%

CCN(C(=O)OCc1ccccc1Cl)c1ccc(Oc2ncnc3cc(OC)c(OC)cc23)cc1Cl [Example 487, 2-Chlorobenzyl N-{2-chloro-4-[(6,7-dimethoxy-4-quinazolinyl)oxy]phenyl}-N-ethylcarbamate]
IC50: > 100 nM
inhibition at 0.1 µM [1]: 31%

COc1cc2nccc(Oc3ccc(NC(=O)OC(C)c4cccc(OC(F)(F)F)c4)cc3)c2cc1OC (stereo not drawn) [Example 180, 1-[3-(Trifluoromethoxy)phenyl]ethyl N-{4-[(6,7-dimethoxy-4-quinolyl)oxy]phenol}carbamate]
IC50 (Pharmacological Test Example 1): 63 nM

COc1cc2ncnc(Oc3ccc(NC(=O)OC4CCCN(C)C4)cc3)c2cc1OC (stereo not drawn) [Example 465, 1-Methyl-3-piperidyl N-{4-[(6,7-dimethoxy-4-quinazolinyl)oxy]phenyl}carbamate]
IC50: 56 nM

COc1cc2nccc(Oc3cc(C)c(NC(=O)OCCN(C)C)cc3C)c2cc1OC [Example 190, 2-(Dimethylamino)ethyl N-{4-[(6,7-dimethoxy-4-quinolyl)oxy]-2,5-dimethylphenyl}carbamate]
IC50 (Pharmacological Test Example 1): > 100 nM

COc1cc2nccc(Oc3ccc(NC(=S)NC(=O)CCc4ccccc4C)cc3Cl)c2cc1OC [Example 732, N-{3-Chloro-4-[(6,7-dimethoxy-4-quinolyl)oxy]phenyl}-N′-[3-(2-methylphenyl)propanoyl]thiourea]
IC50: 48 nM

COc1cc2nccc(Oc3cc(C)c(NC(=O)OC(C)c4cccc(N(C)C)c4)cc3C)c2cc1OC (stereo not drawn) [Example 201, 1-[3-(Dimethylamino)phenyl]ethyl N-{4-[(6,7-dimethoxy-4-quinolyl)oxy]-2,5-dimethylphenyl}-carbamate]
IC50 (Pharmacological Test Example 1): > 100 nM

COc1cc2nccc(Oc3ccc(NC(=S)NC(=O)C(C)(C)C)cc3Cl)c2cc1OC [Example 1187, N-{3-Chloro-4-[(6,7-dimethoxy-4-quinolyl)oxy]phenyl}-N′-(2,2-dimethylpropanoyl)thiourea]
IC50: 24 nM
